The source of these data is PMC7029851, “Antibacterial activity of novel dual bacterial DNA type II topoisomerase inhibitors” (PLoS ONE, 2020).

Usually IC50 stands for the point on the concentration scale where inhibition reaches its midpoint.

Each structure is given as a SMILES string. Bounds are passed on as bounds.

Assay [1] relates to E. coli ATCC 25922. Description: Time-kill assay. The assay is classed as cell-based, Escherichia coli. The note with it: 1× to 4× MIC, over 24 hours. As for the experimental part:
Time-kill experiments were performed according to the procedure reported by Knapp. […] A drug-free control was included in each experiment. The bacterial cultures were standardized to obtain an initial inoculum that ranged from 5×10^5 to 5×10^6 CFU/ml. The cultures were incubated at 37°C in a shaking bath. At 0, 2, 4, 8 and 24-hour intervals, viable counts were performed by spotting (in triplicate) 10 μl aliquots of suitable dilutions of the cultures onto Mueller-Hinton agar (MHA, Oxoid, Basingstoke, UK) plates. After incubation at 37°C for 24 hours, the bactericidal activity, namely, the ability to reduce the initial inoculum by 3 log10 CFU/ml, was assessed for each tested concentration over time.

In assay [2] the test system is E. coli ATCC 25922. Description: Post-antibiotic effect (PAE). The note with it: 1× and 4× MIC. The class given is cell-based, Escherichia coli. As for the experimental part: (§1) A drug-free control was included in each experiment. After being exposed to the drug for 1 hour, viable counts were conducted in triplicate by spotting aliquots (10 μl) of suitable dilutions onto MHA plates. The drugs were removed by diluting the bacterial cultures (1:1000) in Cation-Adjusted Mueller-Hinton Broth (CAMHB; Sigma-Aldrich). The diluted cultures were incubated in a shaking bath at 37°C. To monitor the ongoing suppression of bacterial growth over time (5 hours), aliquots from each broth culture were periodically collected, diluted and plated to perform subsequent viable counts (in triplicate).

The subject of another assay is S. aureus ATCC 29213. As to the kind of experiment: Post-antibiotic effect (PAE). The assay is classed as cell-based, Staphylococcus aureus. Conditions: 1-hour exposure, range over 1×, 4× and 16× MIC. The procedure:
as §1

Another assay concerns the target T1, hERG channel (Homo sapiens, UniProt Q12809).
T1 construct: expressed in transfected cells; host or cells: CHO-K1
Description: hERG automated patch clamp assay. Conditions: CHO-K1, read-out: IC50 against hERG channels. The class given is cell-based. From the text: hERG automated patch clamp assay. The human recombinant ERG CHO-K1 cell line was used in an automated patch clamp assay (qPatch system) to evaluate the hERG channel blockade potential of compounds 1 and 2 [36]. Concentration (log) response curves were fitted to a logistic equation to generate estimates of the 50% inhibitory value.
In general terms: Block of hERG is tested as a sign of cardiac risk.

For assay [3], the system named is S. aureus ATCC 29213 and S. aureus BAA-1720. Description: MIC in the presence of 20% human serum.

T1 sequence (Q12809 whole entry): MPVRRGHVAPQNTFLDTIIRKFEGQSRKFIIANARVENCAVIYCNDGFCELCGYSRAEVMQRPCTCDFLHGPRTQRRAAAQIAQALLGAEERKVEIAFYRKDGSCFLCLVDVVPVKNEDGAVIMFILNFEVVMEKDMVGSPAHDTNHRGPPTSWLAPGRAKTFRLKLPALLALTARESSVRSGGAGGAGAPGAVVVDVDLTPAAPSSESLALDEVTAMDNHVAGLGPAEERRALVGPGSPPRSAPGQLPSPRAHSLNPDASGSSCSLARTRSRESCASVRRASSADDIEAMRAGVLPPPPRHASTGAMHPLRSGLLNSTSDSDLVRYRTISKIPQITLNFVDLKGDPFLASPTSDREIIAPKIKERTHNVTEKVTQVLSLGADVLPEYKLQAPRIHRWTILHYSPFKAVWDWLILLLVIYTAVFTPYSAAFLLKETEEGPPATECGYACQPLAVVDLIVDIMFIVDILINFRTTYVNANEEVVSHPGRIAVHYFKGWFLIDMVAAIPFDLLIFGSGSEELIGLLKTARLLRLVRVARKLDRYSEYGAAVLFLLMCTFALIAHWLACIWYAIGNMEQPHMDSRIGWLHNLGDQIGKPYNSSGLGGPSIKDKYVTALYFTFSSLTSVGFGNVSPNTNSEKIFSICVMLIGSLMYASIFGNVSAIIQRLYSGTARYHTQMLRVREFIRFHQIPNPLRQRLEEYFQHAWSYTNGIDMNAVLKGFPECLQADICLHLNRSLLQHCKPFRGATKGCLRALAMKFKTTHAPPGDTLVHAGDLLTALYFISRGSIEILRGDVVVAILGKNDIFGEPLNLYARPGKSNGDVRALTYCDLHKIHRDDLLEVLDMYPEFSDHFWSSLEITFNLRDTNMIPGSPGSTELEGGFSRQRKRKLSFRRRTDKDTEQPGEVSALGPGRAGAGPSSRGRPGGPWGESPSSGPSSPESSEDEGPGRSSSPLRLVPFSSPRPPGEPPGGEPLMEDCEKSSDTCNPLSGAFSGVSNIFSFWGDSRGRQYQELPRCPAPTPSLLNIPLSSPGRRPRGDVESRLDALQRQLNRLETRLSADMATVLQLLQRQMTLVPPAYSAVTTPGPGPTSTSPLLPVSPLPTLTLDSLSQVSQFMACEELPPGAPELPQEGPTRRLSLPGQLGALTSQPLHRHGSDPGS

As for `O=C1COc2ncc(F)cc2N1[C@H]1CC[C@H](NCc2cc3c(=O)oc4ccc(F)cc4c3[nH]2)CC1` [Compound 1, 8-fluoro-2-({[trans-4-(7-fluoro-2-oxo-2,3-dihydro-1H-pyrido[2,3-b][1,4]oxazin-1-yl)cyclohexyl]amino}methyl)[1]benzopyrano[4,3-b]pyrrol-4(1H)-one], in the assay on E. coli ATCC 25922 [1], the “Bactericidal activity in time-kill (reduction of 3 log10 CFU/ml)” value is listed as “bactericidal effect”. In addition, the “PAE compared with ciprofloxacin” value in the assay with E. coli ATCC 25922 [2] is listed as “consistently higher”. Moreover, in the assay on S. aureus ATCC 29213, the PAE lay within 54 to 58 min. Also, the IC50 on hERG channel came to 8.9 µM. Also, in assay [3], the “Change of MIC in the presence of 20% human serum” value is recorded as “two-fold increase”.

As for `Cl.N#Cc1ccc2ccc(=O)n([C@H]3CC[C@H](NCc4cc5c(=O)oc6ccc(F)cc6c5[nH]4)CC3)c2c1` [Compound 2, 1-(trans-4-{[(8-fluoro-4-oxo-1,4-dihydro[1]benzopyrano[4,3-b]pyrrol-2-yl)methyl]amino}cyclohexyl)-2-oxo-1,2-dihydroquinoline-7-carbonitrile hydrochloride], the “Bactericidal activity in time-kill (reduction of 3 log10 CFU/ml)” value in the assay on E. coli ATCC 25922 [1] was “no bactericidal activity”. Further, the “PAE compared with ciprofloxacin” value in the assay with E. coli ATCC 25922 [2] is on record as “approximately two-fold greater”. This molecule yielded a PAE in the assay with S. aureus ATCC 29213 of 73 to 78 min. For the same molecule, on hERG channel, the IC50 was > 100 µM. Besides, the “Change of MIC in the presence of 20% human serum” value in assay [3] is “not modified”.
